Data set [1] deals with T1, catalytic domain human MMP-1 (Homo sapiens, UniProt P03956).
T1 construct: made in house
T1 sequence (P03956 100-269 limits assumed): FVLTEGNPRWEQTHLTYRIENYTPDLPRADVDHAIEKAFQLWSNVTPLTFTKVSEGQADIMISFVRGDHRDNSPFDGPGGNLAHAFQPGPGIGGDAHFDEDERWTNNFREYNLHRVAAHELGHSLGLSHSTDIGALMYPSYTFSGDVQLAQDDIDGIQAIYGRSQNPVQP
The experiment in a line: MMP-1 fluorogenic inhibition assay. The following applies: * limited by compound solubility; read-out: Calculated Ki(nM) MMP-1. Format: biochemical. On the procedure: (§1) All enzymes were pre-activated at 37° C. with aminophenylmercuric acetate (APMA) or trypsin before being made up to the final concentrations used in the assay.
(§2) For MMP-1, the assay buffer used was 50 mM Tris, 200 mM NaCl, 5 mM CaCl2, 20 μM ZnCl2, 0.05% (w/v) Brij 35, pH 7.5. […] For MMP-13, the assay buffer used was 50 mM Tris, pH 7.5, 200 mM NaCl, 5 mM CaCl2, […] and 0.02% (w/v) Brij 35.
The incubation was performed at 37° C. for 60 minutes.
(§3) For MMP-2, the final assay concentrations of inhibitors used were 1000, 800, 600, 400, 200 and 100 nM. For MMP-3, the final assay concentrations of inhibitors used were 5, 4, 3, 2, 1 and 0.5 nM. For MMP-9 and MMP-14, the final assay concentrations of inhibitors used were 5, 4, 3, 2, 1 and 0.5 μM.
(§4) All assays were carried out in a black 96-well plate with a final volume of 100 μl in each well. Inhibitors were dissolved in dimethylsulphoxide (DMSO) to 1 mM. Solutions were then serially diluted in buffer to give the final concentrations shown.
(§5) These were estimated using the following equation: IC50=(Ki*[…], where S is the substrate concentration and Km the Michaelis-Menton coefficient. Serine Protease Assays

In data set [2] the target is catalytic domain of human MMP-2 (Homo sapiens, UniProt P08253). In words: MMP-2 fluorogenic inhibition assay. Format: biochemical. The following applies: read-out: Calculated Ki(nM) MMP-2. On the procedure: as §1, §2
catalytic domain of human MMP-2, sequence (P08253 with tags, fused parts or gaps DEL222-396 limits assumed): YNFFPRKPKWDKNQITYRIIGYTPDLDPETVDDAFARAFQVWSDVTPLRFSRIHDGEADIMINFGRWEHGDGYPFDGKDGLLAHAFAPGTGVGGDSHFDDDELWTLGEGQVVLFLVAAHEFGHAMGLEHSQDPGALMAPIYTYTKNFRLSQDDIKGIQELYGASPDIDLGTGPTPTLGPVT
(§6) MMP-2, MMP-3 and MMP-9 inhibition was assayed by incubating activated catalytic domain of human MMP-2, MMP-3 and MMP-9 at 1 nM in assay buffer with 5 μM substrate Mca-Arg-Pro-Lys-Pro-Tyr-Ala-Nva-Trp-Met-Lys(Dnp)-NH2, and six different concentrations of inhibitor. The incubation was performed at 37° C. for 60 minutes.
as §3
All assays were carried out in a black 96-well plate with a final volume of 100 μl in each well. Inhibitors were dissolved in dimethylsulphoxide (DMSO) to 1 mM. Solutions were then serially diluted in buffer to give the final concentrations shown. […]

In data set [3] the target is T2, catalytic domain of human MMP-3 (Homo sapiens, UniProt P08254).
T2 construct: made in house
T2 sequence (P08254 100-272 limits assumed): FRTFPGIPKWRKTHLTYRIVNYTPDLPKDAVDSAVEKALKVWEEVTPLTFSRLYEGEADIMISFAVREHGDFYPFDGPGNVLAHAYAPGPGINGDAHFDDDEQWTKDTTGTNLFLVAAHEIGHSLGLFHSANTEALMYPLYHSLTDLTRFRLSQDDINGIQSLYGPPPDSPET
In words: MMP-3 fluorogenic inhibition assay. Format: biochemical. The protocol: as §1, §2, §6, §3, §4, §5

The target in data set [4] is T3, catalytic domain of human MMP-9 (Homo sapiens, UniProt P14780).
T3 sequence (P14780 with tags, fused parts or gaps DEL216-390 limits assumed): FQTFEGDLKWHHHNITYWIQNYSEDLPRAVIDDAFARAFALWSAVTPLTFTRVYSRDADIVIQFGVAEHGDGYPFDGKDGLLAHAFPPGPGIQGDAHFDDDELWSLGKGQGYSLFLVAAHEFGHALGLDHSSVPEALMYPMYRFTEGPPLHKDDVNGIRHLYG
The experiment in a line: MMP-9 fluorogenic inhibition assay. The following applies: read-out: Calculated Ki(nM) MMP-9. Format: biochemical. On the procedure:
(§7) All enzymes were pre-activated at 37° C. with aminophenylmercuric acetate (APMA) or trypsin before being made up to the final concentrations used in the assay. MMP-1 (30 nM) was activated with 0.93 mM APMA for 20 minutes, MMP-2 (30 nM) was activated with 1.32 mM APMA for 1 hour, MMP-3 (1010 nM) was activated with 1.81 mM APMA for 3 hours or heat activated at 55° C. for three hours, MMP-9 (100 nM) was activated with 2 mM APMA for 2 hours, human MMP-13 (100 nM) was activated with 2 mM APMA for 2 hours, and MMP-14 (900 nM) was activated with 0.9 ng/ml trypsin for 25 minutes, followed by the addition of 4.5 ng/ml trypsin inhibitor.
(§8) For MMP-1, the assay buffer used was 50 mM Tris, 200 mM NaCl, 5 mM CaCl2, 20 μM ZnCl2, 0.05% (w/v) Brij 35, pH 7.5. […] For MMP-13, the assay buffer used was 50 mM Tris, pH 7.5, 200 mM NaCl, 5 mM CaCl2, […] and 0.02% (w/v) Brij 35. For MMP-14, the assay buffer used was 50 mM Tris, 100 mM NaCl, 10 mM CaCl2, 0.25% (w/v) Brij 35, pH 7.5.
as §6
(§9) The final assay concentrations of inhibitors used in the MMP-1 assays to determine Ki were 50, 40, 30, 20, 10 and 5 μM. For MMP-2, the final assay concentrations of inhibitors used were 1000, 800, 600, 400, 200 and 100 nM. For MMP-3, the final assay concentrations of inhibitors used were 5, 4, 3, 2, 1 and 0.5 nM. For MMP-9 and MMP-14, the final assay concentrations of inhibitors used were 5, 4, 3, 2, 1 and 0.5 μM.
All assays were carried out in a black 96-well plate with a final volume of 100 μl in each well. […] For MMP-2, MMP-3, MMP-9 and MMP-14, fluorescence was read every 2 minutes at […] and 393 nm γem for 1 hour using a Fluorostar fluorimeter (BMG) with BIOLISE software. For MMP-1 assays, the filters used were 355 nm γex and 440 nm γem; fluorescence was read every 2 minutes for 1 hour. […]

Data set [5] deals with T4, MMP-13 (Homo sapiens, UniProt P45452).
T4 construct: made in house
The experiment in a line: MMP-13 fluorogenic inhibition assay. Format: biochemical. The settings on record: estimated from IC50; read-out: Calculated Ki(nM) MMP-13. On the procedure:
as §1, §2
Assays were carried out in 96-well microfluor plates. All incubations were performed at 37° C. and fluorescence readings determined at 360 nm γex and 450 nm γem.
For the assay, the fluorescence values at time zero were subtracted from those determined at 15 or 20 minutes. The % response was then calculated by comparison to positive controls (enzyme, buffer and substrate in the absence of inhibitor). IC50 values were then determined using FitCurve (Excel Tessella Stats add-in).
as §5

Data set [6] concerns the target T5, catalytic domain human MMP-14 (Homo sapiens, UniProt P50281).
T5 construct: made in house
The experiment in a line: MMP-14 fluorogenic inhibition assay. Format: biochemical. The settings on record: read-out: Calculated Ki(nM) MMP-14. The protocol:
as §7, §8
MMP-14 inhibition was assayed by incubating activated catalytic domain human MMP-14 at 1 nM in assay buffer with 10 μM Mca-Pro-Leu-Gly-Leu-Dpa-Ala-Arg-NH2 and six concentrations of inhibitor. The incubation was performed at 37° C. for 60 minutes.
as §9
All assays were carried out in a black 96-well plate with a final volume of 100 μl in each well. Inhibitors were dissolved in dimethylsulphoxide (DMSO) to 1 mM. […] For MMP-2, MMP-3, MMP-9 and MMP-14, fluorescence was read every 2 minutes at […] and 393 nm γem for 1 hour using a Fluorostar fluorimeter (BMG) with BIOLISE software. For MMP-1 assays, the filters used were 355 nm γex and 440 nm γem; fluorescence was read every 2 minutes for 1 hour. […]

In data set [7] the target is T6, MMP-3 (Homo sapiens, UniProt P08254).
T6 construct: made in house
T6 sequence (P08254 100-272 limits assumed): as the sequence (P08254 100-272 limits assumed) above
In words: Reduction of MMP-3-catalysed degradation of KGF-2. Format: biochemical. The settings on record: MMP-3 / KGF-2, read-out: Percentage inhibition of proteolysis.

In data set [8] the target is T7, Plasmin (Homo sapiens, UniProt P00747).
T7 construct: Human plasmin, 2 mg/vial (Quadratech, 810665) was reconstituted to 1 mg/ml in buffer; purchased Quadratech 810665
T7 sequence (P00747 581-810 limits assumed): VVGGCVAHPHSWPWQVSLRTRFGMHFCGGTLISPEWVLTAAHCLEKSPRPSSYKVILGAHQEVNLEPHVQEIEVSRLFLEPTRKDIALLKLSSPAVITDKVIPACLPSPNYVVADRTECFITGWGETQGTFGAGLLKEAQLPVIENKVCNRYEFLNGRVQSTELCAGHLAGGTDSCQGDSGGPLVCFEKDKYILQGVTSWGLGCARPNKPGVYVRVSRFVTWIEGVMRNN
T7 sequence (P00747 97-580 partner limits assumed): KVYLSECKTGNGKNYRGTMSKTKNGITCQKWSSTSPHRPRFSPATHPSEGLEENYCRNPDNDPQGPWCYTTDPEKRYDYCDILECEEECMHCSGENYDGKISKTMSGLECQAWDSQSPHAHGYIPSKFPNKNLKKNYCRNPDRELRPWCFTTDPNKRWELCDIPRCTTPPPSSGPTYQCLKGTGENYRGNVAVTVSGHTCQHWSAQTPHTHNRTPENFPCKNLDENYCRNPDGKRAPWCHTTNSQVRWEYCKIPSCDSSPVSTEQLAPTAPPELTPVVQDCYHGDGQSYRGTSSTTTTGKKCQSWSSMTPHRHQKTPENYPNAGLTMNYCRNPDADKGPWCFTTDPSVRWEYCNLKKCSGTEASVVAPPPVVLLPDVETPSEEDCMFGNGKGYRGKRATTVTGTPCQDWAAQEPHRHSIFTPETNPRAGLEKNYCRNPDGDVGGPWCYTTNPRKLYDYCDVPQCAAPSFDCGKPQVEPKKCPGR
The experiment in a line: Proteolytic digestion of growth factors by purified plasmin. In kind it is biochemical. On the set-up: key: significant (represented as ‘+’); a score from significant (represented as ‘+’) to major (represented as ‘+++’); major (represented as ‘+++’); Reduction of parent growth factor not accompanied by the appearance of degradation products is represented by (+). The following applies: 37° C., Western blot. (In general: A western blot detects proteins with antibodies after separation by electrophoresis.)
Method: (§10) The extent of proteolysis of the growth factors was assayed by incubating TGF-β2, VEGF, PDGF-BB and KGF-2 with the proteases uPA, plasmin, MMP-3 and MMP-13 in assay buffer (either uPA/plasmin buffer, 50 mM tris-HCl, pH 7.4 or MMP assay buffer, 100 mM Tris, 10 mM NaCl, 10 mM CaCl2, 0.05% (w/v) Brij 35, pH 7.5). […] The growth factors were added to the incubation mixture at a final concentration of 7.9 mg/ml, unless otherwise stated.
(§11) The effects of uPA were determined by incubation at a typical final concentration of 25 μg/ml (1500 U/ml) with each growth factor. The effects of plasmin were determined at a typical final concentration of 0.1 mg/ml by incubation with the individual growth factors in assay buffer. MMP-3 and -13 were incubated at a typical final concentration of 10 nM with the growth factors in assay buffer. […] All incubations were performed in siliconised tubes (Sigma Aldrich, UK).
(§12) All assays were carried out at 37° C. and enzymes were pre-incubated for 15 minutes with or without inhibitor as appropriate, prior to addition of growth factors. After the addition of growth factor, the incubation mixtures were divided into aliquots in siliconised tubes for each time point used. Incubations were carried out over a time course typically of 24 hours, unless otherwise stated. […]

Data set [9] deals with T6, MMP-3. In words: Proteolytic digestion of growth factors by purified MMP-3. Format: biochemical. On the set-up: key: significant (represented as ‘+’); a score from significant (represented as ‘+’) to major (represented as ‘+++’); major (represented as ‘+++’); Reduction of parent growth factor not accompanied by the appearance of degradation products is represented by (+). The settings on record: purified MMP-3, 37° C., Western blot.
Method: as §10, §11, §12

Data set [10] has as its target T4, MMP-13. In words: Proteolytic digestion of growth factors by purified MMP-13. The following applies: purified MMP-13, 37° C., Western blot. In kind it is biochemical. On the set-up: key: significant (represented as ‘+’); a score from significant (represented as ‘+’) to major (represented as ‘+++’); major (represented as ‘+++’); Reduction of parent growth factor not accompanied by the appearance of degradation products is represented by (+).
Method: as §10, §11, §12

The target in data set [11] is uPA (Homo sapiens, UniProt P00749). The experiment in a line: Proteolytic digestion of growth factors by purified uPA. Format: biochemical. On the set-up: High molecular weight human urokinase from urine, 3000 IU/vial (Calbiochem, 672081); purchased Calbiochem 672081; host or cells: human urine; key: significant (represented as ‘+’); a score from significant (represented as ‘+’) to major (represented as ‘+++’); major (represented as ‘+++’); Reduction of parent growth factor not accompanied by the appearance of degradation products is represented by (+). The settings on record: 37° C., Western blot.
Method: as §10, §11, §12

For data set [12] the following is noted: in vivo; cited from earlier work.

The text below walks through data of patent US20050026836A1, “Composition for the treatment of damaged tissue” (priority 1999, published 2005).

`Cc1cc(C2CCN(S(=O)(=O)C(C)(C)C(=O)NO)CC2)ccc1-c1cccc(OCCO)c1` [compound 9470]: the Ki (in general, a measure of affinity in units of concentration, obtained from inhibition or displacement) in data set [1] is 1780 nM; in data set [2], 269 nM; in data set [3] (read-out: Calculated Ki(nM) MMP-3), 1 nM; in [4], 406 nM; in data set [5], 0.95 nM; in data set [6], 1710 nM. The “Selectivity among MMPs (in words)” value in data set [3] (from Ki values of Table 3 (MMP-1, -2, -3, -9, -13, -14)) is “selective dual inhibitor of MMP-3 and MMP-13”. The inhibition (commonly the percentage by which the read-out fell short of the control) at 0.01 µM in data set [7] (inhibitor 0.01 μM) is 24.5%. For the same compound, the inhibition at 0.1 µM in [7] (inhibitor 0.1 μM) was determined as 64.5%. Further, the inhibition at 1 µM in [7] (inhibitor 1 μM) worked out at 72.2%. The inhibition at 10 µM in data set [7] (inhibitor 10 μM) came to 91.1%.
“PDGF-BB: "human recombinant PDGF-BB" obtained from Sigma; growth factor”: the “Extent of hydrolysis of growth factor by Plasmin” value in [8] is recorded as “+++”. The “Extent of hydrolysis of growth factor by MMP-3” value in [9] is listed as “+”. Further, the “Extent of hydrolysis of growth factor by MMP-13” value in data set [10] is given as “(+)”. In data set [11], the “Extent of hydrolysis of growth factor by uPA” value is listed as “++”.
The like results for “TGF-β2: "Human recombinant TGF-β2 and KGF-2 were obtained from R&D Systems"; growth factor” were, in that order, “++”, “(+)”, “+” and “+”.
On to transforming growth factor β3 [TGFβ3], for which the “half life after injection into venous ulcers” value in data set [12] was “approximately 30 minutes”.
